{"source": "ChEMBL document CHEMBL1201862", "about": "“PubChem BioAssay data set” (2004)", "key": {"Galanin receptor type 3": {"biological_target": "Galanin receptor type 3 (Homo sapiens, UniProt O60755)", "sequence (O60755 whole entry)": "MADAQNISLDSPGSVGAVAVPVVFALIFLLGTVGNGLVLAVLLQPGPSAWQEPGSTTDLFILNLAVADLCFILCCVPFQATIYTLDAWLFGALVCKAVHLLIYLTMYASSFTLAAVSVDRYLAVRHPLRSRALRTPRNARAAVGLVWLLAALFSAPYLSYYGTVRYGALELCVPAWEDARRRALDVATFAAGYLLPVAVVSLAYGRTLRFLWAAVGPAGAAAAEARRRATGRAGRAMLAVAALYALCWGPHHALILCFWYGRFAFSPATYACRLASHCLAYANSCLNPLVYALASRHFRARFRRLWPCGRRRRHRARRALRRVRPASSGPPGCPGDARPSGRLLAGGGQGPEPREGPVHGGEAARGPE", "test": "Fluorescence-based cell-based primary high throughput dose response assay to identify antagonists of the Galanin Receptor 3 (GalR3).", "assay_type": "functional"}, "[1]": {"test": "HEK-293T viability loss after treatment – luminescence, T-cell screen hits, cytotoxicity control for TCR NF-kB inhibitor project, dose response (AID 489026);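 also: cells exposed to compound about 14 hours before the viability readout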", "assay_type": "functional, cell-based"}, "cells": {"test": "cells", "assay_type": "functional, cell-based", "conditions": "HEK-CNG"}, "H9c2": {"test_system": "H9c2", "test": "cells", "assay_type": "functional, cell-based", "conditions": "Rattus norvegicus, H9c2, Myocardium"}, "[2]": {"biological_target": "DNA repair protein RAD52 homolog (Homo sapiens, UniProt P43351)", "sequence (P43351 whole entry)": "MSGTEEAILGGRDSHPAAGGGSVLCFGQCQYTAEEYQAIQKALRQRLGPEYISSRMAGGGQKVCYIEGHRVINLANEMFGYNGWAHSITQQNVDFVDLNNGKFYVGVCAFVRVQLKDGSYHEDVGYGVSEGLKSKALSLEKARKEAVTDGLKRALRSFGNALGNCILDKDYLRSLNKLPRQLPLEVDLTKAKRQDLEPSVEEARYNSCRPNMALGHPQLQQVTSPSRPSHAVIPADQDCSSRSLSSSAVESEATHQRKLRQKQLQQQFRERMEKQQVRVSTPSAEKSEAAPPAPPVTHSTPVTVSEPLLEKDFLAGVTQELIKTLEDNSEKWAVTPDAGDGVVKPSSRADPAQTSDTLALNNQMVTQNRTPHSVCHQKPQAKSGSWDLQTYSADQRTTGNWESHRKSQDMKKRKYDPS", "assay_type": "functional, biochemical"}, "INS1": {"test_system": "INS1", "test": "INS-1E survival protection against cytokine death – cell-based, luminescence, retest, dose response (AID 449756);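 also: cell death triggered by IL-1 beta plus TNF-alpha plus IFN-gamma mixture; protective hits raise ATP signal compared with cytokine alone wells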", "assay_type": "functional", "conditions": "Rattus norvegicus"}, "[3]": {"test": "Luminescence Cell-Based Dose Retest to Confirm Inhibitors of Cancer Stem Cells. [Related pubchem assays (depositor defined):AID2717, AID2721]", "assay_type": "functional", "conditions": "Homo sapiens"}, "[4]": {"test": "Luminescence-based dose response cell-based high throughput screening assay for cytotoxic compounds using the IEC-6 intestinal epithelial cell line. [Related pubchem assays: 1858 (Summary AID.), 1825 (Counterscreen.), 1907 (Confirmation screen.)]", "assay_type": "functional"}, "[5]": {"test": "activation of miR-122 Renilla sensor silencing – cell-based, Huh7 psiCHECK-miR122, Renilla luciferase, cherry-picked, dose response (AID 651956);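 also: huh7 hepatoma cells stably carrying a psiCHECK-2 miR-122 sensor plasmid; renilla luciferase signal reporting endogenous miR-122 activity after 48 h compound exposure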", "assay_type": "functional"}, "[6]": {"test": "general mammalian cell viability loss – inhibitor set, cherry-pick, set 2, cytotoxicity control for miR-122 modulator project, dose response (AID 720697)", "assay_type": "functional, cell-based"}, "[7]": {"biological_target": "Broad substrate specificity ATP-binding cassette transporter ABCG2 (Homo sapiens, UniProt Q9UNQ0)", "sequence (Q9UNQ0 whole entry)": "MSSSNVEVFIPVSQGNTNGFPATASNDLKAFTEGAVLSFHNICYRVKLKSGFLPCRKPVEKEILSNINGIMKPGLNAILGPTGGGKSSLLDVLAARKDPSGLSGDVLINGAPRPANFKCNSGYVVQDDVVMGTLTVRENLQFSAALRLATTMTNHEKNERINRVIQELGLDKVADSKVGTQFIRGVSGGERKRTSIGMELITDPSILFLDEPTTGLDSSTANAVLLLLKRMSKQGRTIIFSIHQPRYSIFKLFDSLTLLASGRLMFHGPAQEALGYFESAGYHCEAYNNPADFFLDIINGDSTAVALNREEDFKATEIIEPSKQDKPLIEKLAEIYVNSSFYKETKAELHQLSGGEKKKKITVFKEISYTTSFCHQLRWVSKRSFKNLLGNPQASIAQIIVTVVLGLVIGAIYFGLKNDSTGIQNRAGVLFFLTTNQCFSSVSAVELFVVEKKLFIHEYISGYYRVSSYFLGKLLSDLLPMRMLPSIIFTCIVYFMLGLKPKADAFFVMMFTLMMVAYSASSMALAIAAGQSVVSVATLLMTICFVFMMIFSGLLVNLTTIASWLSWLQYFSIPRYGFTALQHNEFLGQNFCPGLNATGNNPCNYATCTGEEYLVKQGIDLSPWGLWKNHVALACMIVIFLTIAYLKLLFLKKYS", "test": "blockers of JC-1 export by ABCG2 – Ig-MXP3 cells, flow cytometry, dose response (AID 1690)", "assay_type": "functional"}, "[8]": {"biological_target": "Matrix metalloproteinase-14 (Homo sapiens, UniProt P50281)", "test": "Dose Response confirmation of uHTS hits for a small molecule inhibitors of MT1-MMP activation in a fluorescence assay set 1.", "assay_type": "functional"}, "[9]": {"test": "Counterscreen for […] of the human trace amine associated receptor 1 (TAAR1): Fluorescence-based cell-based high throughput dose response assay to identify nonselective Ga16 agonists.", "assay_type": "functional"}, "[10]": {"test": "Counterscreen for antagonists of the human trace amine associated receptor 1 (hTAAR1): Fluorescence-based cell-based high throughput dose response assay to identify nonselective Ga16 antagonists.", "assay_type": "functional"}, "[11]": {"biological_target": "T1, Trace amine-associated receptor 1 (Homo sapiens, UniProt Q96RJ0)", "T1 sequence (Q96RJ0 whole entry)": "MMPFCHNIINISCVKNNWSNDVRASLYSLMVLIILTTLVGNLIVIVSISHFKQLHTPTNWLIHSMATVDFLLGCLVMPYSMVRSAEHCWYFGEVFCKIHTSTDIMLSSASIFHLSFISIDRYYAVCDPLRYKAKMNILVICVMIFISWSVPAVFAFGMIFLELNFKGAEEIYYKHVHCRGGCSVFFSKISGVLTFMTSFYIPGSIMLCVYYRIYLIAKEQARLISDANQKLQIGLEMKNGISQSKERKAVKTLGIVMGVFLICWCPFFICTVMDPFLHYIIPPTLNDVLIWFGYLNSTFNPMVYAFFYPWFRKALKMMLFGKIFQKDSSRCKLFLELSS", "test": "Counterscreen for antagonists of the human trace amine associated receptor 1 (hTAAR1): Fluorescence-based cell-based high throughput dose response assay to identify TAAR1 Agonists.", "assay_type": "functional"}, "[12]": {"biological_target": "T1, Trace amine-associated receptor 1", "test": "Fluorescence-based cell-based high throughput dose response assay to identify antagonists of the human trace amine associated receptor 1 (TAAR1).", "assay_type": "functional"}, "[13]": {"biological_target": "T2, Carboxy-terminal domain RNA polymerase II polypeptide A small phosphatase 1 (Homo sapiens, UniProt Q9GZU7)", "T2 sequence (Q9GZU7 whole entry)": "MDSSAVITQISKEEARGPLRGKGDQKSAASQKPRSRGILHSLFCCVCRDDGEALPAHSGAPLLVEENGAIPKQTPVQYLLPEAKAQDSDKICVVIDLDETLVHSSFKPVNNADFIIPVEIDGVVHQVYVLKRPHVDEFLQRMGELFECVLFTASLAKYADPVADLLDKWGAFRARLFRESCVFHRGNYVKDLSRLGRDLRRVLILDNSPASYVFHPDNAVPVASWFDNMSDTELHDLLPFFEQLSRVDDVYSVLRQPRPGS", "test": "CTDSP1 inhibitors, concentration-response, biochemical, absorbance readout, ultra-high-throughput screen actives (AID 540297)", "assay_type": "functional"}, "[14]": {"biological_target": "T3, Tyrosine-protein phosphatase non-receptor type 22 (Homo sapiens, UniProt Q9Y2R2)", "T3 sequence (Q9Y2R2 whole entry)": "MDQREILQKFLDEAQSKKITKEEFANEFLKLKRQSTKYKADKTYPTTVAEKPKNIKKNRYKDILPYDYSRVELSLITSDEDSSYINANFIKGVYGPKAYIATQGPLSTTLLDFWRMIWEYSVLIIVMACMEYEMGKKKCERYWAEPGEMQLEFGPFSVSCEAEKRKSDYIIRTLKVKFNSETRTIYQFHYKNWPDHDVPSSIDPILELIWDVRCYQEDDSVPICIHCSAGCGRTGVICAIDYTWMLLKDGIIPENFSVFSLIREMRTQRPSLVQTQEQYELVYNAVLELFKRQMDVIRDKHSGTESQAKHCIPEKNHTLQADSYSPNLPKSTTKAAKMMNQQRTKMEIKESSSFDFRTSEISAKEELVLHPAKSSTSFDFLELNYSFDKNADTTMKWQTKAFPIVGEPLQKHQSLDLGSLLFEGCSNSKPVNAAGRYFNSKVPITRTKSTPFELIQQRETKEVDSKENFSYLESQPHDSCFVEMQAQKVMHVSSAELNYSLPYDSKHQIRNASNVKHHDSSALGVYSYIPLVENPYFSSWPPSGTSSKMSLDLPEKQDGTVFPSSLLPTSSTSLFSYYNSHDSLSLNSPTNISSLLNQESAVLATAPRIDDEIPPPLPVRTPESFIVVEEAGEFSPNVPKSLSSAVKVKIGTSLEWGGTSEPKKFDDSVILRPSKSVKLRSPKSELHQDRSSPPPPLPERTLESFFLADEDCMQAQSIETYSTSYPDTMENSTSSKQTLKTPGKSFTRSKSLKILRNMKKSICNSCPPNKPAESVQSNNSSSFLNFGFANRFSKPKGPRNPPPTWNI", "test": "lymphoid phosphatase LYP inhibitors – biochemical, selectivity assay for STEP inhibitor project, dose response (AID 624241)", "assay_type": "functional"}, "[15]": {"biological_target": "Tyrosine-protein phosphatase non-receptor type 11 (Homo sapiens, UniProt Q06124)", "sequence (Q06124 whole entry)": "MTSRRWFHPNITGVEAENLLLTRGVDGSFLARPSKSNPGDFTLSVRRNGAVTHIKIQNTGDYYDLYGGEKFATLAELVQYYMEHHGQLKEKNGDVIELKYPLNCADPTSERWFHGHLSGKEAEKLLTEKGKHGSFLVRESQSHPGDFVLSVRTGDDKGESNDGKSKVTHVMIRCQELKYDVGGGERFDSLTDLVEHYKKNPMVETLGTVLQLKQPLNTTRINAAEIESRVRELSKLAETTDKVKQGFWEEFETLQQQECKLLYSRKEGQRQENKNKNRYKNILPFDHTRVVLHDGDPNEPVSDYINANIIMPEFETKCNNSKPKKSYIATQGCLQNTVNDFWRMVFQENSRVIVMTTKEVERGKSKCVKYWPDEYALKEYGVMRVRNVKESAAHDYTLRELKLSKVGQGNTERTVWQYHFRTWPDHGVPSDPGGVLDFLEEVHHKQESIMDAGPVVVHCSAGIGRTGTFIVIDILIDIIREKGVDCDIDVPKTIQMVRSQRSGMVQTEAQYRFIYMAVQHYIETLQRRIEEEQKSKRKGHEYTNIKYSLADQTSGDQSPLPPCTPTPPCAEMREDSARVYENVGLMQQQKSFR", "test": "PTPN11 enzyme inhibitors – biochemical, selectivity assay for STEP inhibitor project, dose response (AID 602367)", "assay_type": "functional", "conditions": "read-out: IC50_Mean"}, "[16]": {"biological_target": "Dual specificity protein phosphatase 3 (Homo sapiens, UniProt P51452)", "sequence (P51452 whole entry)": "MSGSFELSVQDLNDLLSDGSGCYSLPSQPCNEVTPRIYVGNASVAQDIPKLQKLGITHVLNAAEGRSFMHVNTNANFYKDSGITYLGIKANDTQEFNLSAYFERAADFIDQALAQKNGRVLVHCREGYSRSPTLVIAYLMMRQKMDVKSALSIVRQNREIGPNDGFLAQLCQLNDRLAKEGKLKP", "test": "VHR phosphatase inhibition, dose response, selectivity assay for STEP inhibitor project, biochemical (AID 602374)", "assay_type": "functional", "conditions": "read-out: IC50_Mean"}, "[17]": {"biological_target": "Tyrosine-protein phosphatase non-receptor type 5 (Homo sapiens, UniProt P54829)", "sequence (P54829 whole entry)": "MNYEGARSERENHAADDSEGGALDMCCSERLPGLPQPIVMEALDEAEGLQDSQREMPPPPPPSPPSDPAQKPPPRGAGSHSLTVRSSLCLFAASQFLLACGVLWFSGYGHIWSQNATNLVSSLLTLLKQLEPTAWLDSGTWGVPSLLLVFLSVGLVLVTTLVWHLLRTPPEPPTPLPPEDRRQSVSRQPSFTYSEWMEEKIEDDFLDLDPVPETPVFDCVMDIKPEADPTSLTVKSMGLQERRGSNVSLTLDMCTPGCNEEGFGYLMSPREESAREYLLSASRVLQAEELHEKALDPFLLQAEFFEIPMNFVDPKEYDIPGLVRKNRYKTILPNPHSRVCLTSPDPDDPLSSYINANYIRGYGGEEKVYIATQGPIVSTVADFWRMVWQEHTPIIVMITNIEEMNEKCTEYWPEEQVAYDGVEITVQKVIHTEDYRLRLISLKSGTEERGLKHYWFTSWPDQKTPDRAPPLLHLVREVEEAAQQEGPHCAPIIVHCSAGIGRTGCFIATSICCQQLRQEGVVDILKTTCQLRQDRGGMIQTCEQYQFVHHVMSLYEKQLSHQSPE", "test": "PTPN5 enzyme inhibition – biochemical, fluorescence intensity, uHTS hits, confirmation (AID 602372)", "assay_type": "functional", "conditions": "read-out: IC50_Mean"}}, "note": "Active and inactive are the calls of the source.", "data": [{"smiles": "CCn1cc(C(=O)NC2CCCc3c2cnn3-c2cccc(C)c2C)cn1", "note": "(stereo unspecified)", "values": [{"measurement": "IC50", "setting": "Galanin receptor type 3", "result": "0.874 µM (active)"}, {"measurement": "IC50", "setting": "[1]", "result": "> 80 µM (inactive)"}, {"measurement": "EC50", "setting": "cells", "result": "> 29.9 µM (inactive)"}]}, {"smiles": "COc1ccc2c(c1OC)c(=O)n1c3ccc(OC(C)C(=O)NCCN4CCOCC4)cc3c3ccnc2c31", "note": "(stereo unspecified)", "values": [{"measurement": "IC50", "setting": "H9c2", "result": "21.3 µM (active)"}, {"measurement": "AC50", "setting": "[2]", "result": "4.31 µM (active)"}]}, {"smiles": "Cc1ccc(-c2nc(C(Cl)Cl)c3ccccc3n2)cc1", "values": [{"measurement": "AC50", "setting": "INS1", "result": "4.53 µM (active)"}, {"measurement": "AC50", "setting": "[3]", "result": "1.1 µM (active)"}, {"measurement": "IC50", "setting": "[4]", "result": "0.373 µM (active)"}, {"measurement": "AC50", "setting": "[5]", "result": "20 µM (active)"}, {"measurement": "AC50", "setting": "[6]", "result": "10.1 µM (active)"}]}, {"smiles": "CCOc1ccccc1NC(=O)C(OC(=O)c1ccc(N(C)C)cc1)c1ccccc1", "note": "(stereo unspecified)", "values": [{"measurement": "EC50", "setting": "[7]", "result": "2.75 µM (active)"}]}, {"smiles": "CCOc1ccc2nc(NN=C3C(=O)NC(=S)NC3=O)sc2c1", "values": [{"measurement": "IC50", "setting": "[8]", "result": "13.9 µM (active)"}]}, {"smiles": "Cc1ccc(S(=O)(=O)N2[C@@H](c3ccc(Br)cc3)C(C(=O)O)=CC[C@H]2c2ccc(Cl)cc2)cc1", "values": [{"measurement": "EC50", "setting": "[9]", "result": "> 29.9 µM (inactive)"}, {"measurement": "IC50", "setting": "[10]", "result": "17.5 µM (inactive)"}, {"measurement": "EC50", "setting": "[11]", "result": "13.1 µM (inactive)"}, {"measurement": "IC50", "setting": "[12]", "result": "1.62 µM (active)"}]}, {"smiles": "O=C(O)Cc1cccc(O)c(=O)c1C(=O)O", "values": [{"measurement": "IC50", "setting": "[13]", "result": "3.9 µM (active)"}, {"measurement": "IC50", "setting": "[14]", "result": "8.34 µM (active)"}, {"measurement": "IC50", "setting": "[15]", "result": "0.376 µM (active)"}, {"measurement": "IC50", "setting": "[16]", "result": "0.544 µM (active)"}, {"measurement": "IC50", "setting": "[17]", "result": "11.6 µM (active)"}]}]}
